Measurements as given in patent publication US5773423A (priority 1994, dated 1998).
Residue numbers refer to the chain shown, from its start. Read-outs that look alike come from different tables or passages of the source. Values belong to the molecule of their own block, whether it stands above or below them.

Key:
[1] = biological target: T1, A1 receptors from rat brain membranes (Rattus norvegicus, UniProt P25099); assay: biochemical; assay type: binding
T1 construct: Rat cerebral cortical and striatal membranes were prepared; from tissue; host or cells: rat brain (cerebral cortical) membranes
T1 sequence (P25099 1-326): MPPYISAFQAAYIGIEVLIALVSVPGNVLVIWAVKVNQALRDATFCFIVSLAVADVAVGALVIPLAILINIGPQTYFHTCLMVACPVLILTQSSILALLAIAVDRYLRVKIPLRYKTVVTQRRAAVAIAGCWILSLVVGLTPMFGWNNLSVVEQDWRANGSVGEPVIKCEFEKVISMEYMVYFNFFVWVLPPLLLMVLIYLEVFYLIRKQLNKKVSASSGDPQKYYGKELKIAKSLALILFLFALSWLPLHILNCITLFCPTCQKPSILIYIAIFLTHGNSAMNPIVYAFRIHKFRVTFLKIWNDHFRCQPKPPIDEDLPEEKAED

[2] = biological target: T2, A2 receptors from rat striatal membranes (Rattus norvegicus, UniProt P30543); assay: Radioligand binding at A2 (A2a) receptors, displacement of [3H]CGS 21680 (or [3H]NECA with 50 nM CPA) from rat striatal membranes
T2 construct: Rat cerebral cortical and striatal membranes were prepared; from tissue; host or cells: rat striatal membranes
T2 sequence (P30543 whole entry): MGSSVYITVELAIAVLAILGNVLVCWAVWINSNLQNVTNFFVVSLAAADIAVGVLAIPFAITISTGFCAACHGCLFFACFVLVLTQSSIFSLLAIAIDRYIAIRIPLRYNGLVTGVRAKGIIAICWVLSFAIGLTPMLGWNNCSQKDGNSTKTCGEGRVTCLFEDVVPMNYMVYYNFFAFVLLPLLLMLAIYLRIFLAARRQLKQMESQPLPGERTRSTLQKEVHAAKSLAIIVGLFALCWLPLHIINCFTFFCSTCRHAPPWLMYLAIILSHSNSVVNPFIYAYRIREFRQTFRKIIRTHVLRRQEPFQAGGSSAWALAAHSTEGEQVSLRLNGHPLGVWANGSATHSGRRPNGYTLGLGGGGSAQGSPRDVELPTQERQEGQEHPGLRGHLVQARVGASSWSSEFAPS

[3] = biological target: T3, adenosine uptake sites in rat brain membranes (Rattus norvegicus, UniProt O54698); assay: Competition for [3H]NBTI binding at adenosine uptake sites in rat striatal membranes; conditions: for Ki: read-out: Ki (NBTI), 0.3 nM [3H]NBTI, 30 min at 23° C., pH 7.4
T3 sequence (O54698 1-457): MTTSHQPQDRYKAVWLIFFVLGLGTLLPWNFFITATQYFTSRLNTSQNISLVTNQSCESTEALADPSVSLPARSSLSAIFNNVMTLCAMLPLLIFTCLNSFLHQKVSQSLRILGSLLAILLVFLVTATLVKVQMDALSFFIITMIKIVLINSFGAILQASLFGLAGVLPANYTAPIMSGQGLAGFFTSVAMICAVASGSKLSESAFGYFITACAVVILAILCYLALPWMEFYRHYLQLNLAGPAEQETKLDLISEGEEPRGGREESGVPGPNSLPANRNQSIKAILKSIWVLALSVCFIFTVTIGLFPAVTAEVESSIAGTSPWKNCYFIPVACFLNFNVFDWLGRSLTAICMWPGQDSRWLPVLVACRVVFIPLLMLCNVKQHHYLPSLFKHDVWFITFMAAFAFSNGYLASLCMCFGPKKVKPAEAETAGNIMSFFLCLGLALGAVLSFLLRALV

[4] = biological target: T4, A3 adenosine receptors in rat brain membranes (Rattus norvegicus, UniProt P28647)
T4 sequence (P28647 1-320): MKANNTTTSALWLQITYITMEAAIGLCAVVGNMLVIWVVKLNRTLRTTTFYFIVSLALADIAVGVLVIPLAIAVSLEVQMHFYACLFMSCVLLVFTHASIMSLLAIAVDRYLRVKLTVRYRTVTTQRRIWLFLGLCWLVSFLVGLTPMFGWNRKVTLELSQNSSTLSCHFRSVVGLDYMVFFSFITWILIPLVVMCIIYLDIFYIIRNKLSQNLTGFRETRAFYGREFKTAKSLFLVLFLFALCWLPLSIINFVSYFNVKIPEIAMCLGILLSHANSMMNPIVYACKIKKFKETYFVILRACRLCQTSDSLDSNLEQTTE

[5] = biological target: T2, A2 receptors from rat striatal membranes; conditions: Table 2, footnotes d/e: literature; read-out: Ki (A2); cited from earlier work
[6] = biological target: T5, A3 adenosine receptors in mouse brain membranes (Mus musculus, UniProt Q61618); assay: [125I]AB-MECA saturation binding to A3 receptors in mouse brain membranes in the presence of 100 nM CPX
T5 construct: in mouse brain membranes; from tissue; host or cells: NIH Swiss mouse brain region membranes (cerebellum for the Kd/Bmax)
T5 sequence (Q61618 1-319): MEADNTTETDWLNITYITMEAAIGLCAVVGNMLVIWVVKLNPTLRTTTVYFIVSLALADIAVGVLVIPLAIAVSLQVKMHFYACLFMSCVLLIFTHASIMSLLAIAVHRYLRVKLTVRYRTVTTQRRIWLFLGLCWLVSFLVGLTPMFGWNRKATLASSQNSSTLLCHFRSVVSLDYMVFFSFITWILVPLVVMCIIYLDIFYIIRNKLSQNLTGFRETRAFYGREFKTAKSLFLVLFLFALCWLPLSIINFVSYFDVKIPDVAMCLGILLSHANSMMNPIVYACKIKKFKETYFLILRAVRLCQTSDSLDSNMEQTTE

[7] = biological target: T6, A1 and A3 adenosine receptors in mouse brain membranes (Mus musculus, UniProt Q60612)
T6 sequence (Q60612 1-326): T1 sequence (P25099 1-326) with V151E, D155A, R157I, D316E, L319I, E325D

[8] = test system: A1 and A3 adenosine receptors in mouse brain membranes
rat A3 receptors = biological target: T7, rat A3 receptors (Rattus norvegicus, UniProt P28647); assay: Irreversible inhibition of radioligand binding at rat A3 receptors after preincubation
T7 construct: expressed in transfected cells; host or cells: CHO cells, transfected (the IC50); RBL-2H3 rat mast cells (endogenous) also named
T7 sequence (P28647 1-320): T4 sequence (P28647 1-320)

[9] = test system: locomotor activity in mice; assay: Locomotor activity in mice (open field, Digiscan activity monitor); assay type: in vivo, mouse (NIH Swiss); conditions: CSC 1 mg/kg
[10] = test system: locomotor activity in mice; conditions: CSC 1 mg/kg, shown earlier; cited from earlier work

Ki ([1]; Table 2, [3H]PIA, rat brain membranes, read-out: Ki (A1)): 2140 ± 100 nM | Ki ([2]; Table 2, [3H]CGS 21680, rat striatal membranes, read-out: Ki (A2)): 3210 ± 1360 nM | Ki [3]: 49500 nM | Ratio of Ki (NBTI)/Ki ([125I]AB-MECA) ([3]; selectivity for cloned rat A3 receptors vs adenosine uptake site): 22,000
Structure (SMILES): CNC(=O)[C@H]1O[C@@H](n2cnc3c(NCc4cccc(I)c4)nc(SC)nc32)[C@H](O)[C@@H]1O [Example 46, N^6-(3-iodobenzyl)-2-methylthio-9-[5-(methylamido)-β-D-ribofuranosyl]-adenine]

Ki [3]: 15200 nM
Structure (SMILES): CNC(=O)[C@H]1O[C@@H](n2cnc3c(NCc4cccc(I)c4)nc(Cl)nc32)[C@H](O)[C@@H]1O [Example 44, 2-chloro-N^6-(3-iodobenzyl)-9-[5-(methylamido)-β-D-ribofuranosyl]-adenine]

Ki [3]: 203 ± 93 nM
Structure (SMILES): OC[C@H]1O[C@@H](n2cnc3c(NCc4ccccc4)ncnc32)[C@H](O)[C@@H]1O [Compound 7, N^6 -benzyladenosine, reference compound]

More lines, now with the values behind:

Structure (SMILES): CNC(=O)[C@H]1O[C@@H](n2cnc3c(NCc4ccc(N)c([125I])c4)ncnc32)[C@H](O)[C@@H]1O [[^125 I]AB-MECA, [^125 I]4-amino-3-iodobenzyladenosine-5'-N-methyluronamide]
Bmax in rat brain membranes [4]: 43 fmol/mg protein | Ki [5]: 197 nM | A3 share of total specific binding, cerebellum and striatum ([6]; 0.4 nM [125I]AB-MECA): 18 % of total specific binding | A3 share of total specific binding, hippocampus and cortex ([6]; 0.4 nM [125I]AB-MECA): 7-9 % of total specific binding | Kd ([6]; mouse cerebellar membranes): 1.39 nM | Bmax cerebellum ([7]; cerebellum): 120±5 fmol specifically bound/mg protein | Bmax cortex ([7]; cortex): 159±15 fmol specifically bound/mg protein | Bmax hippocampus ([7]; hippocampus): 215±17 fmol specifically bound/mg protein | Kd values (Scatchard analysis) ([7]; regions of mouse brain): 1.9 to 2.8 nM | Bmax striatum ([7]; striatum): 123±23 fmol specifically bound/mg protein | specific binding of total binding [8]: ca. 70 % of total binding | nonspecific binding ([8]; in the presence of 40 μM R-PIA): approximately 30 % of the total binding

Structure (SMILES): CNC(=O)[C@H]1O[C@@H](n2cnc3c(NCc4cccc(N=C=S)c4)ncnc32)[C@H](O)[C@@H]1O [N^6-(3-isothiocyanatobenzyl)adenosine-5'-N-methyluronamide]
Ki [1]: 145 nM | irreversible inhibition at rat A1 receptors (in words) [1]: not at rat A1 or A2a receptors | Ki [2]: 272 nM | irreversible inhibition at rat A2a receptors (in words) [2]: not at rat A1 or A2a receptors | IC50 (rat A3 receptors): 50 nM | Kd of remaining A3 receptor sites (in words) (rat A3 receptors): No change was observed in the Kd value | irreversible inhibition of A3 binding (in words) (rat A3 receptors; CHO cells or RBL-2H3 mast cells): irreversible inhibition of radioligand binding at rat A3 receptors

Structure (SMILES): Cn1c(=O)c2c(nc(C=Cc3cccc(Cl)c3)n2C)n(C)c1=O [Compound 134, 8-(3-chlorostyryl)caffeine]
reversal of 3-IB-MECA-mediated locomotor depression (in words) [9]: small, statistically insignificant reversal | reversal of APEC-elicited behavioral depression (in words) [10]: complete reversal | displacement of specific [125I]AB-MECA binding (in words) [7]: failed to displace specific binding of [^125 I]AB-MECA
